For assay [1], the system named is L. monocytogenes Scott A to HT-29 cell. As to the kind of experiment: Adhesion analysis on HT-29 cells. The format is cell-based, Listeria monocytogenes. The settings on record: CMP 0.4 mg/ml, at the lower MOI, 30 min 37° C. The text has this:
(§1) The human intestinal epithelial cell line HT-29 and the human gastric epithelial cell line AGS were purchased from the Korea Cell Line Bank (KCLB; Seoul, Korea). HT-29 cells have been extensively used as a model system for studying interaction of enteric pathogens with intestinal epithelial cells. All media and fetal bovine serum (FBS) were obtained from Gibco BRL (Life Technologies Inc., Grand Island, N.Y., USA) and JBI (Jeil Biotech services Inc., Seoul, Korea). The HT-29 and AGS cells were grown in RPMI-1640 medium which was supplemented with 10% heat-inactivated FBS. The cells were routinely cultured at 37° C. in 5% CO2 incubator with 6-well or 12-well tissue culture plates for adhesion and invasion assays and in 100-mm-diameter tissue culture plates for RNA isolation.
(§2) Prior to the adhesion assay, the HT-29 and the AGS cells monolayers were washed three times in pre-warm PBS (25° C.) to remove any culture medium and non-attached cells. The adhesion assays were performed using L. monocytogenes Scott A according to the method of Hagman et al. (1999) with modifications. Bacteria were grown overnight at 37° C. in TSBYE. […]

In assay [2] the test system is L. monocytogenes Scott A. As to the kind of experiment: Nematode Caenorhabditis elegans killing assay. Type of assay: in vivo. The procedure:
Caenorhabditis elegans killing assay were performed as initially described by Tenor et al. (2004) with modification. Briefly, L. monocytogenes Scott A was grown in 10 ml of TSBYE culture for overnight. Culture samples (each, 10 μl) were then spread on NGM agar plates (Brenner, 1974; diameter of each, 30 mm). In the present invention, instead of wild-type Bristol N2 worms, we tested killing of C. elegans glp-4 mutant worms. […] (Mylonakis et al., 2002). For each strain, healthy 12 nematodes in L4 stage were transferred from NGM plates seeded with Escherichia coli OP50 to the plates seeded with L. monocytogenes Scott A in the absence or presence of 0.4 mg/ml of CMP and incubated at 25° C. The number of living worms per plate was determined at various time points for 15 days with a light microscopy (Olympus CH30, Tokyo, Japan). […] Each experimental condition was tested in duplicate or triplicate. In analogous experiments, E. coli OP50 was used as controls.

Assay [3] relates to L. monocytogenes Scott A to AGS cell. As to the kind of experiment: Adhesion analysis on AGS cells. The settings on record: CMP 0.4 mg/ml, at the lower MOI, 30 min 37° C. The format is cell-based, Listeria monocytogenes.
Text: as §1, §2

For assay [4], the system named is L. monocytogenes Scott A. As to the kind of experiment: Light microscopy of biofilm on PVC microtiter plates and glass tube. Type of assay: cell-based, Listeria monocytogenes. To be noted: MWB 24 h, CMP 0.4 mg/ml. The text has this: The quantification of biofilm production on plastic microtiter plates and glass tubes was based on a previously described method (Djordjevic et al., 2002). As abiotic surfaces for biofilm formation, 96-well polyvinyl chloride (PVC) microplates (BD Biosciences, San Jose, Calif., USA) and Pyrex glass tube (10 mm by 20 mm) were used. Overnight cultures of 12 strains of L. monocytogenes were twice washed with PBS and inoculated at 10^6 CFU/ml in modified Welshimer's broth (MWB) supplemented different concentrations of CMP (Davisco Foods International, Inc., MN, USA; 0.1, 0.2, and 0.4 mg/ml or 1.0, 2.0, and 4.0 mg/ml). After incubation at 30° C. without agitation for 24 and 48 h, the microplates were twice rinsed thoroughly with double-distilled water, and a 0.1% (w/v) solution of crystal violet (CV) was added to stain the attached cells. […] The absorbance at 595 nm of the solubilized dye was subsequently determined by using an enzyme-linked immunosorbent assay (ELISA) plate reader (Molecular Devices, Sunnyvale, Calif., USA). […]
In addition, biofilm formations on PVC microtiter plates and glass tube by L. monocytogenes incubated in MWB for 24 h in the presence or absence of CMP (0.4 mg/ml) were analyzed using light microscopy and microscopic analyses were illustrated in FIGS. 3 and 4, respectively.

Assay [5] concerns L. monocytogenes Scott A to HT-29 cell. Description: Invasion analysis (gentamicin-based) on HT-29 cells. The format is cell-based, Listeria monocytogenes. The settings on record: CMP 0.4 mg/ml, at the lower MOI, 1.5 h 37° C.
Text: as §1
The invasion of epithelial cells by L. monocytogenes Scott A was studied using the gentamicin-based assay described by Bunduki et al. (1993) and Gaillard et al. (1987) with modifications. Briefly, the HT-29 and the AGS cells monolayers (10^6 cells) were inoculated with 100 μl of the L. monocytogenes Scott A suspension (10^8 and 10^6 CFU/ml) and incubated for 1.5 h at 37° C. in the absence or presence of 0.4 mg/ml CMP, respectively. The monolayers were washed with PBS, followed by the addition of 250 μl of 1 mg/ml gentamicin (Sigma) and incubation for an additional 1.5 h. […]

Several values for one entry are separate records, joined by “and”; a condition that tells them apart may be missing. Equal values may be shown once.

Regarding κ-casein macropeptide [CMP], the “adhesion of L. monocytogenes Scott A” value in assay [1] and in assay [3] was “prevented” throughout. Further, the worms survived in assay [2] (C. elegans glp-4 on lawn of L. monocytogenes Scott A, agar medium with CMP 0.4 mg/ml, 8 days, 25° C., 37.5% without CMP) is 54% and 50%. Also, the “survival of C. elegans from the infection of L. monocytogenes” value in assay [2] (CMP 0.4 mg/ml, 15 days) is on record as “prolong the survival ability”. For the same substance, the “attached cells (light microscopy)” value in assay [4] was “only a small number of L. monocytogenes Scott A cells had attached”. Also, the “invasion of L. monocytogenes Scott A” value in assay [5] is recorded as “prevented”.

The values are drawn from patent US8383582B2, “Inhibitor against forming biofilm comprising κ-casein macropeptide” (Industry Foundation of Chonnam National University, priority 2010, dated 2013).
